Data reported in PMC6993587, “Detection of EXP1-Specific CD4+ T Cell Responses Directed Against a Broad Range of Epitopes Including Two Promiscuous MHC Class II Binders During Acute Plasmodium falciparum Malaria” (Frontiers in Immunology, 2020).

Test system: CD8+ T cells (PBMCs of malaria patients)
Experiment: EXP1-specific CD8+ T cell response, ICS for IFNγ after in vitro culture
Format: cell-based, human
Conditions: patients HH-16, HH-18, HH-20 and HH-25; coincided with a CD4+ T cell response against the same peptide
Experimental: Cryopreserved PBMCs were thawed and cultivated at 1–5 × 10^6 cells/ml for optimal results in 500 μl of R10 medium (RPMI 1640 medium with 10% FCS (Sigma Aldrich), 1% HEPES buffer and 1% Penicillin-Streptomycin). PBMCs were stimulated with EXP1 peptide pool 1 [EXP1 peptide 1-10 (EXP1-P01-10)], pool 2 (EXP1-P11-20) or pool 3 (EXP1-P21-31) (Table 2) at a final concentration of 10 μg/ml, together with 1 μg/ml of anti-CD28 and anti-CD49d antibodies [BD FastImmune™, clone: L293 (CD28) and clone: L25 (CD49d)] for 14 days. Medium with recombinant IL-2 (50 U/ml) was added when necessary. After 14 days, cells were re-stimulated with single EXP1-peptides (final concentration 10 μg/ml) and then assayed for interferon-γ (IFNγ) production by ELISPOT and intracellular cytokine staining (ICS) as previously described ([28]).
ICS was performed as previously described ([26], [28]). 5 × 10^5 PBMCs were stimulated with the corresponding EXP1 peptide at a final concentration of 10 μg/ml before blocking the secretion with 10 μg/ml Brefeldin A (Sigma Aldrich) 1 h after stimulation. […] Cells were then analyzed on a BD LSRFortessa (BD Bioscience). […]

KKGSGEPLIDVHDLI [EXP1-P09, overlapping peptide of P. falciparum EXP1, aa 40–54]
CD8+ T cell response: CD8+ T cell response
